In patent publication US20240317758A1 (Halia Therapeutics, Inc., priority 2021, published 2024):

What was measured:
[1] = molecular target: T1, full-length recombinant human NEK7 (Homo sapiens, UniProt Q8TDX7); test: NEK7 enzymatic assay; assay type: biochemical; conditions: recombinant human NEK7, casein substrate, radiolabelled ATP
T1 construct: full-length recombinant human NEK7; GST (N); purchased SignalChem NO9-10G; host or cells: Sf9 insect cells (baculovirus)
Method in brief: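 Full-length GST-tagged human NEK7 from Sf9 cells (assay concentration 70 nM) was used with casein (assay concentration 20 μM) in Hepes pH 7.5 buffer, 1% DMSO, and compound (3-fold dilutions, 10 μM to 0.5 nM) was preincubated 20 min at room temperature. Radiolabelled ATP was added for 2 h, phosphorylation was read on P81 paper, and IC50 was fitted from % activity remaining versus vehicle.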

IL-1β release = IL-1β release assay (THP-1 cells, PMA, LPS, nigericin); assay type: cell-based; conditions: Homo sapiens, LPS 250 ng/mL, nigericin 20 μM, cleaved IL-1β in media
Procedure: Approximately 1.5 million THP-1 cells were plated in each well of a 6-well TC plate and incubated with 40 nM PMA in RPMI (10% FBS, 1% Penstrep) for 24 hours. The media was then removed and cells were rested in RPMI (10% FBS, 1% Penstrep) for 24 hours after which time the media was removed and cells were pre-treated for 2 hours with various concentrations of compounds of interest (typically serial 3-fold dilution in RPMI+5% FBS, concentrations ranging from 1 μM to 0.5 nM) in RPMI (5% FBS). The media was again removed and cells were incubated with 250 ng/mL LPS and compounds of interest (concentrations as above) in RMPI (5% FBS) for 2 hours. The media was removed for a last time and cells were incubated with 20 μM nigericin and compounds of interest (concentrations as above) in Opti-MEM for 30 minutes. Cell media was then collected and the amount of cleaved IL-1β was determined using a JESS instrument (Protein Simple) and standard protocols. Cleaved Il-1β antibody was obtained from Cell Signaling (catalogue #83186S) and was used at 1:20 dilution in antibody diluent 2. Protein Simple 1× anti-Rabbit HRP secondary antibody was used along with Protein Simple luminol and peroxide for chemiluminescent detection. Primary antibody incubation time was increased from 30 minutes to 60 minutes.

T1 sequence (Q8TDX7 whole entry): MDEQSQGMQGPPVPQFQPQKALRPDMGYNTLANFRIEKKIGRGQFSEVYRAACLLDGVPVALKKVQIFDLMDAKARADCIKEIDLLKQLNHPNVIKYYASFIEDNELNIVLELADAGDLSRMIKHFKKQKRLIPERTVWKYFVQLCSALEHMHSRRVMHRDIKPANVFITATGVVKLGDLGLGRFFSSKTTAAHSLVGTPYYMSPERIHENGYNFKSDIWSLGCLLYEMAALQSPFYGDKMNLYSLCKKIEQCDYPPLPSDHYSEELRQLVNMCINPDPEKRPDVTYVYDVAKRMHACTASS

IC50 [1] [µM]	IC50 (IL-1β release) [µM]	Structure (SMILES)
< 0.1	< 0.05	CN1CCC(Oc2ccc(NC(=O)Nc3ccc(-c4cn(C5CC5)c5ncnc(N)c45)cc3F)cc2C(F)(F)F)CC1 [Example I-47, 1-(4-(4-amino-7-cyclopropyl-7H-pyrrolo[2,3-d]pyrimidin-5-yl)-2-fluorophenyl)-3-(4-((1-methylpiperidin-4-yl)oxy)-3-(trifluoromethyl)phenyl)urea]
< 0.1	> 1	CN1CCN(Cc2cc(NC(=O)Nc3ccc(-c4nn(C5CC5)c5ncnc(N)c45)cc3F)cc(C(F)(F)F)c2)CC1 [Example I-87, 1-(4-(4-amino-1-cyclopropyl-1H-pyrazolo[3,4-d]pyrimidin-3-yl)-2-fluorophenyl)-3-(3-((4-methylpiperazin-1-yl)methyl)-5-(trifluoromethyl)phenyl)urea]
< 0.1	> 1	CN1CCC(n2cc(-c3ccc(NC(=O)Nc4ccc(CN5CCN(C)CC5)c(C(F)(F)F)c4)c(F)c3)c3c(N)ncnc32)CC1 [Example I-21, 1-(4-(4-amino-7-(1-methylpiperidin-4-yl)-7H-pyrrolo[2,3-d]pyrimidin-5-yl)-2-fluorophenyl)-3-(4-((4-methylpiperazin-1-yl)methyl)-3-(trifluoromethyl)phenyl)urea]
0.1 to 0.5	0.25 to 1	CC(=O)N1CCC(Oc2ccc(NC(=O)Nc3ccc(-c4cn(C5CC5)c5ncnc(N)c45)cc3F)cc2C(F)(F)F)CC1 [Example I-82, 1-(4-((1-acetylpiperidin-4-yl)oxy)-3-(trifluoromethyl)phenyl)-3-(4-(4-amino-7-cyclopropyl-7H-pyrrolo[2,3-d]pyrimidin-5-yl)-2-fluorophenyl)urea]
0.1 to 0.5	0.05 to 0.25	CN1CCN(Cc2ncc(NC(=O)Nc3ccc(-c4cn(C5CC5)c5ncnc(N)c45)cc3F)cc2C(F)(F)F)CC1 [Example I-68, 1-(4-(4-amino-7-cyclopropyl-7H-pyrrolo[2,3-d]pyrimidin-5-yl)-2-fluorophenyl)-3-(6-((4-methylpiperazin-1-yl)methyl)-5-(trifluoromethyl)pyridin-3-yl)urea]
< 0.1	< 0.05	CN(C)C1CCN(Cc2ccc(NC(=O)Nc3ccc(-c4cn(C5CC5)c5ncnc(N)c45)cc3F)cc2C(F)(F)F)C1 (stereo not drawn) [Example I-45, 1-(4-(4-amino-7-cyclopropyl-7H-pyrrolo[2,3-d]pyrimidin-5-yl)-2-fluorophenyl)-3-(4-((3-(dimethylamino)pyrrolidin-1-yl)methyl)-3-(trifluoromethyl)phenyl)urea]
< 0.1	< 0.05	CC(C)n1nc(-c2ccc(NC(=O)Nc3ccc(CN4CCN(C)CC4)c(C(F)(F)F)c3)cc2)c2c(N)ncnc21 [Example I-24, 1-(4-(4-amino-1-isopropyl-1H-pyrazolo[3,4-d]pyrimidin-3-yl)phenyl)-3-(4-((4-methylpiperazin-1-yl)methyl)-3-(trifluoromethyl)phenyl)urea]
< 0.1	< 0.05	COCCn1cc(-c2ccc(NC(=O)Nc3ccc(CN4CCN(C)CC4)c(C(F)(F)F)c3)c(F)c2)c2c(N)ncnc21 [Example I-81, 1-(4-(4-amino-7-(2-methoxyethyl)-7H-pyrrolo[2,3-d]pyrimidin-5-yl)-2-fluorophenyl)-3-(4-((4-methylpiperazin-1-yl)methyl)-3-(trifluoromethyl)phenyl)urea]
0.1 to 0.5	> 1	CC(=O)N1CCN(Cc2ccc(NC(=O)Nc3ccc(-c4cn(C5CC5)c5ncnc(N)c45)cc3F)cc2C(F)(F)F)CC1 [Example I-80, 1-(4-((4-acetylpiperazin-1-yl)methyl)-3-(trifluoromethyl)phenyl)-3-(4-(4-amino-7-cyclopropyl-7H-pyrrolo[2,3-d]pyrimidin-5-yl)-2-fluorophenyl)urea]
< 0.1	0.05 to 0.25	CS(=O)(=O)CCN1CCN(Cc2ccc(NC(=O)Nc3ccc(-c4cn(C5CC5)c5ncnc(N)c45)cc3F)cc2C(F)(F)F)CC1 [Example I-99, 1-(4-(4-amino-7-cyclopropyl-7H-pyrrolo[2,3-d]pyrimidin-5-yl)-2-fluorophenyl)-3-(4-((4-(2-(methylsulfonyl)ethyl)piperazin-1-yl)methyl)-3-(trifluoromethyl)phenyl)urea]
0.5 to 2	> 1	CS(=O)(=O)N1CCN(Cc2ccc(NC(=O)Nc3ccc(-c4cn(C5CC5)c5ncnc(N)c45)cc3F)cc2C(F)(F)F)CC1 [Example I-98, 1-(4-(4-amino-7-cyclopropyl-7H-pyrrolo[2,3-d]pyrimidin-5-yl)-2-fluorophenyl)-3-(4-((4-(methylsulfonyl)piperazin-1-yl)methyl)-3-(trifluoromethyl)phenyl)urea]
< 0.1	< 0.05	CC(C)N1CCN(Cc2ccc(NC(=O)Nc3ccc(-c4cn(C5CC5)c5ncnc(N)c45)cc3F)cc2C(F)(F)F)CC1 [Example I-63, 1-(4-(4-amino-7-cyclopropyl-7H-pyrrolo[2,3-d]pyrimidin-5-yl)-2-fluorophenyl)-3-(4-((4-isopropylpiperazin-1-yl)methyl)-3-(trifluoromethyl)phenyl)urea]
< 0.1	< 0.05	CN1CCC(Oc2ccc(NC(=O)Nc3ccc(-c4cn(C5CC5)c5ncnc(N)c45)cc3F)cc2C(F)(F)F)C(F)C1 (single isomer, unassigned) [Example I-90, 1-(4-(4-amino-7-cyclopropyl-7H-pyrrolo[2,3-d]pyrimidin-5-yl)-2-fluorophenyl)-3-(4-((3-fluoro-1-methylpiperidin-4-yl)oxy)-3-(trifluoromethyl)phenyl)urea]
< 0.1	< 0.05	COCCn1nc(-c2ccc(NC(=O)Nc3ccc(CN4CCN(C)CC4)c(C(F)(F)F)c3)c(F)c2)c2c(N)ncnc21 [Example I-77, 1-(4-(4-amino-1-(2-methoxyethyl)-1H-pyrazolo[3,4-d]pyrimidin-3-yl)-2-fluorophenyl)-3-(4-((4-methylpiperazin-1-yl)methyl)-3-(trifluoromethyl)phenyl)urea]
0.1 to 0.5	0.25 to 1	CN1CCN(Cc2ccc(NC(=O)Nc3ccc(-c4cn(C5CC5)c5ncnc(N)c45)cc3F)cc2C2CC2)CC1 [Example I-40, 1-(4-(4-amino-7-cyclopropyl-7H-pyrrolo[2,3-d]pyrimidin-5-yl)-2-fluorophenyl)-3-(3-cyclopropyl-4-((4-methylpiperazin-1-yl)methyl)phenyl)urea]
< 0.1	0.05 to 0.25	Nc1ncnc2c1c(-c1ccc(NC(=O)Nc3ccc(CN4CCNCC4)c(C(F)(F)F)c3)c(F)c1)cn2C1CC1 [Example I-79, 1-(4-(4-amino-7-cyclopropyl-7H-pyrrolo[2,3-d]pyrimidin-5-yl)-2-fluorophenyl)-3-(4-(piperazin-1-ylmethyl)-3-(trifluoromethyl)phenyl)urea]
< 0.1	0.05 to 0.25	Nc1ncnc2c1c(-c1ccc(NC(=O)Nc3ccc(CN4CCN(CCO)CC4)c(C(F)F)c3)c(F)c1)cn2C1CC1 [Example I-72, 1-(4-(4-amino-7-cyclopropyl-7H-pyrrolo[2,3-d]pyrimidin-5-yl)-2-fluorophenyl)-3-(3-(difluoromethyl)-4-((4-(2-hydroxyethyl)piperazin-1-yl)methyl)phenyl)urea]
< 0.1	< 0.05	CN1CCN(Cc2ccc(NC(=O)Nc3ccc(-c4cn(C)c5ncnc(N)c45)cc3F)cc2C(F)(F)F)CC1 [Example I-18, 1-(4-(4-amino-7-methyl-7H-pyrrolo[2,3-d]pyrimidin-5-yl)-2-fluorophenyl)-3-(4-((4-methylpiperazin-1-yl)methyl)-3-(trifluoromethyl)phenyl)urea]
0.1 to 0.5	0.05 to 0.25	CN1CCN(C(=O)c2ccc(NC(=O)Nc3ccc(-c4nn(C5CC5)c5ncnc(N)c45)cc3F)cc2C(F)(F)F)CC1 [Example I-49, 1-(4-(4-amino-1-cyclopropyl-1H-pyrazolo[3,4-d]pyrimidin-3-yl)-2-fluorophenyl)-3-(4-(4-methylpiperazine-1-carbonyl)-3-(trifluoromethyl)phenyl)urea]
< 0.1	< 0.05	CCN1CCN(Cc2ccc(NC(=O)Nc3ccc(-c4nn(C5CC5)c5ncnc(N)c45)cc3F)cc2C(F)(F)F)CC1 [Example I-50, 1-(4-(4-amino-1-cyclopropyl-1H-pyrazolo[3,4-d]pyrimidin-3-yl)-2-fluorophenyl)-3-(4-((4-ethylpiperazin-1-yl)methyl)-3-(trifluoromethyl)phenyl)urea]
0.1 to 0.5	> 1	Nc1ncnc2c1c(-c1ccc(NC(=O)Nc3ccc(CN4CCC(N)CC4)c(C(F)(F)F)c3)c(F)c1)cn2C1CC1 [Example I-75, 1-(4-(4-amino-7-cyclopropyl-7H-pyrrolo[2,3-d]pyrimidin-5-yl)-2-fluorophenyl)-3-(4-((4-aminopiperidin-1-yl)methyl)-3-(trifluoromethyl)phenyl)urea]
